From a melting point compilation (Tetko et al.; mined from patent text by program, amines drawn as free bases though some values may be those of a salt) come the findings set out here.

In the case of `COc1nc2cc(F)cc(CN=[N+]=[N-])c2nc1OC`, the melting point was in the range of 75 to 78 °C.

`CCc1nc2c(-c3ccc(Cl)cc3Cl)nccn2c1C(C)O` (centres undefined) yielded a melting point of 165 to 166 °C.

The compound `c1ccc(-n2c(-c3cccc(OCCN4CCCCC4)c3)nc3ccccc32)cc1` showed a melting point of 68 °C.

In turn, `N#CCCNC(=O)c1cccc(-c2ccc3c(c2)C(c2ccc(Cl)cc2Cl)CO3)c1` (centres undefined) yielded a melting point of 130 to 131 °C.

With `Cc1ccc(-c2nc(N3CCOCC3)c3c(C)c(C#N)sc3n2)cc1`, the melting point is 206 to 207 °C.

Compound `Cc1cc(O)n(C)c(=O)c1C#N` registered a melting point of 285 °C.

In turn, `O=C(CCC(O)c1cccs1)Nc1cccc2cc(-c3nccs3)[nH]c12` (centres undefined) returned a melting point of 155 to 157 °C.

In turn, `Cc1oc(-c2ccccc2)nc1COc1cccc(CON2C(=O)c3ccccc3C2=O)c1` displayed a melting point of 146 to 147 °C.

As for `O=c1nc(-c2ccccn2)sc2ccc(OCCCCCCO)cc12`, the melting point was 136 to 137 °C.

In the case of `CCOC(=O)c1cn(CCCl)c2cc(-n3cccc3)c(F)cc2c1=O`, the melting point fell in the range of 254 to 256 °C.

Take `CC1(C)O[C@H](CC#N)C[C@H](CC(=O)N(c2ccccc2)c2ccccc2)O1`: the melting point lay in the range of 98 to 100 °C.

Compound `O=C1N=c2ccc(Cl)cc2=N1` returned a melting point of 320 °C.

The compound `CC(=O)SCC(C(=O)NC(Cc1occ2ccccc12)C(=O)O)C(F)(F)F` (centres undefined) showed a melting point of 147 to 149 °C.

In the case of `O=C(COc1cc(-c2ccc(Cl)cc2)nc2ccccc12)N1CCSCC1`, the melting point was found to be 117 °C.

In the case of `CCCCOc1ccc(/C=C/c2nc3c(c(=O)n(CC)c(=O)n3CC)n2C)cc1`, the melting point was 123 to 124 °C.

`Cc1cc(-c2csc(N)n2)on1` displayed a melting point of 208 to 210 °C.

Turning to `CCOC(=O)C(NC(=O)N1CCc2cc(S(=O)(=O)N3CCN(c4cccc(Cl)c4)CC3)ccc21)C(C)C` (centres undefined), the melting point lay within 143 to 144 °C.

Compound `CC(=NO)c1ccc2c(c1)CCC2` registered a melting point of 104 °C.

Compound `COc1cccc(Cc2cnc(N)nc2N)c1` had a melting point of 221 to 223 °C.

Compound `CCCCC1=N/C(=C\c2c[nH]c3ncccc23)C(=O)N1C` came in with a melting point of 220 to 222 °C.

`Cc1c(CNCC(C)(C)O)n(C)c2c(C)c(NC(=O)c3ccc(OC[C@@H]4CCCO4)cc3F)ccc12` returned a melting point of 131 to 132 °C.

For `CCN(CC)c1ccc(-c2nc3ccc(OC(F)(F)F)cc3[nH]2)cc1`, the melting point was in the range of 168 to 173 °C.

Compound `CCCCC(COc1ccc(-c2cccc(CC#N)c2)cc1)N(O)C=O` (centres undefined) came in with a melting point of 99 to 101 °C.

In the case of `CC(=O)C1=C(O)C(=C(C)Nc2ccc(Cl)cc2)C(=O)OC1=O`, the melting point lay within 205 to 206 °C.

The compound `CC1(C)Oc2ccc(S(=O)(=O)c3cccc(O)c3)cc2[C@@H](Nc2ccnc(Cl)n2)[C@]1(C)O` yielded a melting point of more than 280 °C.

Take `CCN1CCN(C(=O)NC(C(=O)NC2C(=O)N(OCc3ccccc3)C2C)c2ccccc2)C(=O)C1=O` (centres undefined): the melting point lay within 100 to 105 °C.

With `COc1ccc(OCC(O)CCCl)cc1` (centres undefined), the melting point lay within 65 to 68 °C.

Turning to `CC(C)Oc1cccc(N2CC(=O)NC(=O)N2)c1`, the melting point lay within 170 to 172 °C.

In turn, `CC(C)(C)OC(=O)Nc1ccc(OC(=O)C2CCCCC2)c(C(=O)O)c1` showed a melting point of 68 to 74 °C.

`CC(=C(c1ccccc1)c1ccccc1)P(C1CCCCC1)C1CCCCC1` came in with a melting point of 128 to 130 °C.

Turning to `Cc1nc(-c2ccc(C#N)cc2)oc1C(=O)NCCCCN1CCC(c2ccc3c(c2OCCO)CCCC3)CC1`, the melting point fell in the range of 109 to 111 °C.

In the case of `O=C(O)C(Cl)(Cl)CCCCCCCCCCBr`, the melting point was in the range of 49 to 51 °C.

Compound `O=C(O)CCC(=NOCc1ccc(OCc2cc(-c3ccccc3)on2)cc1)c1ccccc1` had a melting point of 100 to 101 °C.

In the case of `CCn1c(C=NNC(N)=S)cnc1[N+](=O)[O-]`, the melting point is 220 to 222 °C.

Take `COC(=O)c1ccc(C(=O)CC(=O)c2ccc3c(c2)C(C)(C)CCC3(C)C)cc1`: the melting point came to 128 °C.

The compound `COC(=O)CCCC(C)(C)c1cc(O)c(C(C)(C)C)cc1O` yielded a melting point of 136 to 139 °C.

`CCc1ccccc1NC(=O)c1ccc(CN2C(=O)C3(COc4cc5c(cc43)CCO5)c3ccccc32)cc1` (centres undefined) gave a melting point of 203 to 204 °C.

`OCc1cccc2c1ccn2-c1ccnc(N[C@H]2CC[C@H](O)CC2)n1` gave a melting point of 212 to 213 °C.

With `COC(=O)C(C#N)C(=O)Nc1ccc(C(F)(F)F)cc1` (centres undefined), the melting point lay in the range of 186 to 189 °C.

`CC1c2cc(C(C)(C)C)cc(C(C)(C)C)c2OP(OCCNC(C)(C)C)Oc2c1cc(C(C)(C)C)cc2C(C)(C)C` (centres undefined) gave a melting point of 174 to 175 °C.

Compound `CNC(=O)N(OC(=O)OC)c1ccc(Cl)c(Cl)c1` returned a melting point of 110 °C.

`Cc1c(Cc2cc(Cl)cc(Cl)c2)c(C(F)(F)F)nn1CCO` displayed a melting point of 91 to 93 °C.

The compound `Clc1ccc(-c2nnc(NCCN3CCCCC3)c(Cc3ccccc3)n2)cc1` displayed a melting point of 196 °C.

The compound `O=C(O)CCCCCCCCCCOc1ccccc1` yielded a melting point of 76 to 78 °C.

`CC(=O)Nc1nc(CN2CCN(C(c3ccccc3)c3ccccc3)CC2)cs1` displayed a melting point of 178 to 179 °C.

Compound `CC(C)c1cccc(C(C)C)c1NS(=O)(=O)CC#N` had a melting point of 195 to 197 °C.

The compound `CCC[C@H]1CC[C@H](CCCOc2ccc(C(=O)O[C@H](c3ccccc3)[C@H](OC(=O)c3ccc(OCCC[C@H]4CC[C@H](CCC)CC4)cc3)c3ccccc3)cc2)CC1` displayed a melting point of 75 °C.

`CCOC(=O)c1nc(Cl)nc(N)c1OC` returned a melting point of 118 to 119 °C.

`CCOC(=O)C1C(=O)NCC1CCc1ccc(C(=O)OCC(C)C)cc1` (centres undefined) gave a melting point of 98 to 104 °C.

`NC(=O)c1ccc(N2CCNCC2)cc1` displayed a melting point of 240 to 243 °C.

In turn, `CCOC(=O)c1ccccc1S(N)(=O)=O` gave a melting point of 122 to 124 °C.

In the case of `COC(=O)C1CCC2C3CCC4CC=CCC4(C)C3C(NCCC(C)C)CC12C` (centres undefined), the melting point fell in the range of 150 to 152 °C.

In the case of `CCOC(=O)c1c(CN(CCC(C)C)CCC(C)C)nc2cc(OC)c(OC)cc2c1-c1ccc(OC)c(OC)c1`, the melting point is 114 to 115 °C.

Compound `COc1cc(N)c(Cl)cc1C(=O)NCC1CCN(CCCCCCOc2ccccc2)CC1` gave a melting point of 113 to 115 °C.

With `Cc1ncc(CCC(=O)O)s1`, the melting point is 120 °C.

With `Cn1c(C(F)(F)F)cc(=O)n(-c2cc3c(cc2F)nc(C(F)(F)F)n3Cc2cccc(Cl)c2)c1=O`, the melting point fell in the range of 91 to 93 °C.

The compound `Cc1nc(-c2ccccc2)nc(-c2cccc([N+](=O)[O-])c2)c1C(=O)NCCN(C)C` gave a melting point of 122 to 124 °C.

In the case of `c1ccc2c(c1)ncc1nc(C3CCCCCC3)[nH]c12`, the melting point lay within 225 to 226 °C.

The compound `CCCCN(CCCC)S(=O)(=O)NC(=O)Nc1c(C(C)C)cccc1C(C)C` showed a melting point of 98 to 101 °C.

Compound `O=c1[nH]c2ccc(C(F)(F)F)cc2c(-c2cc(Cl)ccc2O)c1Sc1ccc(O)cc1` displayed a melting point of 180 to 190 °C.

Compound `COc1cccc(C(CN(C)C)c2nnc3n2-c2ccc(Cl)cc2C(c2ccccc2)=NC3)c1` (centres undefined) came in with a melting point of 139 to 140 °C.

Compound `COC(=O)c1ccc(C(=O)N2CCN(C(=O)c3ccc(C(=O)OC)cc3)CC2)cc1` came in with a melting point of 234 to 237 °C.

`NC(=O)CCN1C(=O)C(=O)c2cc(F)ccc21` had a melting point of 142 to 145 °C.

With `CCCNc1cc(NS(=O)(=O)c2ccc(N)cc2)nc(NCCC)n1`, the melting point was 211 to 215 °C.

Regarding `CSc1nc(NCc2ccc(-c3ccccc3)cc2)n2ncc(C(C)C)c2n1`, the melting point is 134 to 135 °C.

As for `NS(=O)(=O)c1ccc(-n2nc(CCCNC(=O)NC34CC5CC(CC(C5)C3)C4)cc2-c2ccccc2)cc1`, the melting point lay in the range of 139 to 144 °C.

`Cc1ccc(S(=O)(=O)n2ccc3c(C(=O)c4ccccc4O)cccc32)cc1` returned a melting point of 110 °C.

For `CCOC(=O)c1c(C)n(C)cc(-c2ccc(Cl)cc2)c1=O`, the melting point fell in the range of 200 to 201 °C.

In turn, `COc1nc2cc(Cl)ccc2nc1N1CCN(C)CC1` had a melting point of 99.9 to 102 °C.

With `Cc1c(Cl)cccc1Nc1ncccc1C(=O)OC1OC(=O)c2ccccc21` (centres undefined), the melting point was in the range of 178 to 180 °C.

Compound `CCCCCCCCC1(CCCCCCCC)c2cc(O)ccc2-c2ccc(Br)cc21` displayed a melting point of 110 °C.

With `COc1nc2cc(Cl)c(Cl)c(CS(C)(=O)=O)c2nc1OC`, the melting point lay within 161 to 163 °C.

`O=C(O)CNC(=O)CSC(=O)c1ccccc1` yielded a melting point of 140 to 142 °C.

As to `CC(=O)c1ccc(OCc2ccsc2)cc1OC(CCc1ccccc1C#N)C(=O)O` (centres undefined), the melting point was in the range of 132 to 134 °C.

Compound `O=C1Nc2ccc(I)cc2C1=NNC(=O)c1cccc(Oc2ccccc2)c1` showed a melting point of 283 °C.

Regarding `CCOC(=Nc1nc(C)cc(OC)n1)NS(=O)(=O)c1ccccc1OC(F)F`, the melting point lay within 131 to 133 °C.

Regarding `COc1ccc(C2CCN(C(=O)C(N)=O)CC2)cc1CC1CCCC1`, the melting point was in the range of 117 to 118 °C.

The compound `COc1cc(NC(=O)Nc2ccccc2)c(O)c(C(C)(C)C)c1` came in with a melting point of 147 to 149 °C.

Consider `NC(=O)c1ccc(OCCNCC(O)c2ccccc2)cc1O` (centres undefined), for which the melting point was 141 to 142 °C.

The compound `Cc1c(C)c2c(c(C)c1NCc1ccc3c(c1)OCO3)C(c1ccc(C(C)C)cc1)C(C)(C)O2` (centres undefined) came in with a melting point of 100 to 102 °C.

As for `NC1=NC(c2ccc(OC(F)(F)F)cc2)(c2cccc(-c3cccnc3F)c2)C2=NCCN12` (centres undefined), the melting point lay within 95 to 100 °C.

The compound `COc1ccc(C#Cc2cccc(CN(O)C(C)=O)c2)cc1` came in with a melting point of 124 to 126 °C.

Take `Cc1ccc(C=CC(=O)O)cn1`: the melting point is 214 to 216 °C.

`Cc1c(C(=O)O)sc2c(Br)csc12` returned a melting point of 280 to 282 °C.

`Cc1onc(-c2ccc(Br)cc2)c1-c1ccc(S(N)(=O)=O)cc1` registered a melting point of 152 to 153 °C.

Take `COc1ccc(CCNC(=O)NO)cc1OC`: the melting point is 109 to 111 °C.

`C=C(C)C1CCC2C3CC(=O)C4=CC(=O)CCC4(C)C3CCC12C` (centres undefined) yielded a melting point of 148 to 150 °C.

Regarding `COc1cc(C)c(Br)cc1OCc1ccccc1`, the melting point is 110 to 111 °C.

In turn, `CN1CCN(c2cc3nc(C(C)(C)C)sc3cc2N=C=O)CC1` showed a melting point of 124 to 126 °C.

One may read the melting point as the temperature, or range, at which the solid turns liquid.
